This note sets out measurements from patent US20240065983A1, “COMPOSITION AND METHOD FOR TREATING COVID-19” (University of South Florida, priority 2021, published 2024).

Experiment [1] deals with SARS CoV2 variants (WA, UK B.1.1.7, SA B.1.351). In kind it is cell-based, SARS-CoV-2.
The subject of another experiment is SARS-CoV-2 delta. In kind it is cell-based.

`CC(O)c1ccc(CCOc2ccc(CC3SC(=O)NC3=O)cc2)nc1` (stereo not drawn) [LG, leriglitazone]: the “expression of CoV2-N gene and S genes” value in experiment [1] is recorded as “significantly inhibited”. For the same molecule, in experiment [1] (LG 20 uM, all CoV2 strains), the “expression of inflammatory genes TNFα, IL-6, IL1β” value is recorded as “down-regulated at the transcript level”. For the same molecule, in the experiment with SARS-CoV-2 delta, the “expression of N and inflammatory gene transcripts” value is “decreased expression of N and several inflammatory gene transcripts”.
